Experimental data taken from US20130303509A1, “NAMPT INHIBITORS” (AbbVie Inc., priority 2012, published 2013).

tested on: PC3 cells; experiment: NAMPT Cell Proliferation Assay; format: cell-based; conditions: Homo sapiens, PC-3, 120 h, 5 days incubation, cell viability by Cell Titer Glo
Summary of the method: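 Five-day CellTiter-Glo viability readout in PC3 cells grown in RPMI/10% heat-inactivated FBS. Compounds added after overnight attachment as a 10-fold dilution series, […]. Percent inhibition fitted to sigmoidal dose-response to derive IC50.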

Point of comparison: `CCCCCCC(=O)N1CCC(c2ccc(NC(=O)C3CN(c4cccnn4)C3)cc2)CC1` [Example 329, N-[4-(1-heptanoylpiperidin-4-yl)phenyl]-1-(pyridazin-3-yl)azetidine-3-carboxamide], IC50 2.83 nM. Against it:
- CCCCC(=O)N1CC(Oc2ccc(NC(=O)C3CN(c4ccnnc4)C3)cc2)C1 [Example 210, N-{4-[(1-pentanoylazetidin-3-yl)oxy]phenyl}-1-(pyridazin-4-yl)azetidine-3-carboxamide] — 22-fold higher, 62.7 nM
- COCC(=O)N1CCC(Oc2ccc(NC(=O)C3CN(c4ccnnc4)C3)cc2)CC1 [Example 267, N-(4-{[1-(methoxyacetyl)piperidin-4-yl]oxy}phenyl)-1-(pyridazin-4-yl)azetidine-3-carboxamide] — 220-fold higher, 622 nM
- O=C(Nc1ccc(O[C@@H]2CCN(C(=O)C3CCCO3)C2)cc1)C1CN(c2cccnn2)C1 (stereo partly drawn) [Example 499, 1-(pyridazin-3-yl)-N-(4-{[(3R)-1-(tetrahydrofuran-2-ylcarbonyl)pyrrolidin-3-yl]oxy}phenyl)azetidine-3-carboxamide] — 4.3-fold higher, 12.1 nM
- Cc1cccc(C(=O)N2CCC(S(=O)(=O)c3ccc(NC(=O)C4CN(c5cccnn5)C4)cc3)CC2)c1C [Example 581, N-(4-{[1-(2,3-dimethylbenzoyl)piperidin-4-yl]sulfonyl}phenyl)-1-(pyridazin-3-yl)azetidine-3-carboxamide] — 29-fold higher, 80.7 nM
- O=C(Nc1ccc(O[C@@H]2CCN(C(=O)C3CCOCC3)C2)cc1)C1CN(c2ccnnc2)C1 [Example 446, 1-(pyridazin-4-yl)-N-(4-{[(3R)-1-(tetrahydro-2H-pyran-4-ylcarbonyl)pyrrolidin-3-yl]oxy}phenyl)azetidine-3-carboxamide] — 38-fold higher, 108 nM
- CCC(C)(C)CN1CCC(c2ccc(NC(=O)C3CN(c4cccnc4)C3)cc2)CC1 [Example 89, N-{4-[1-(2,2-dimethylbutyl)piperidin-4-yl]phenyl}-1-(pyridin-3-yl)azetidine-3-carboxamide] — 23-fold higher, 64.6 nM
- O=C(Nc1ccc(O[C@@H]2CCN(C(=O)Cc3ccc(C(F)(F)F)cc3)C2)cc1)C1CN(c2ccnnc2)C1 [Example 455, 1-(pyridazin-4-yl)-N-(4-{[(3R)-1-{[4-(trifluoromethyl)phenyl]acetyl}pyrrolidin-3-yl]oxy}phenyl)azetidine-3-carboxamide] — 160-fold higher, 458 nM
- Cc1ccc(C(=O)N2CC[C@@H](Oc3ccc(NC(=O)C4CN(c5ccnnc5)C4)cc3)C2)s1 [Example 458, N-[4-({(3R)-1-[(5-methylthiophen-2-yl)carbonyl]pyrrolidin-3-yl}oxy)phenyl]-1-(pyridazin-4-yl)azetidine-3-carboxamide] — 23-fold higher, 64.4 nM
- CC(C)(C)C(=O)N1CCC(S(=O)(=O)c2ccc(NC(=O)C3CN(c4cccnn4)C3)cc2)CC1 [Example 594, N-(4-{[1-(2,2-dimethylpropanoyl)piperidin-4-yl]sulfonyl}phenyl)-1-(pyridazin-3-yl)azetidine-3-carboxamide] — 17-fold higher, 47.8 nM
- O=C(Nc1ccc(C2CCN(C(=O)c3cccc(C(F)(F)F)c3)CC2)cc1)C1CN(c2cccnn2)C1 [Example 354, 1-(pyridazin-3-yl)-N-(4-{1-[3-(trifluoromethyl)benzoyl]piperidin-4-yl}phenyl)azetidine-3-carboxamide] — 2.7-fold higher, 7.51 nM
- CSCCC(=O)N1CCC(c2ccc(NC(=O)C3CN(c4cccnn4)C3)cc2)CC1 [Example 337, N-(4-{1-[3-(methylsulfanyl)propanoyl]piperidin-4-yl}phenyl)-1-(pyridazin-3-yl)azetidine-3-carboxamide] — 2.5-fold higher, 6.94 nM
- O=C(Nc1ccc(C2CCN(C(=O)Cc3ccccc3F)CC2)cc1)C1CN(c2cccnn2)C1 [Example 366, N-(4-{1-[(2-fluorophenyl)acetyl]piperidin-4-yl}phenyl)-1-(pyridazin-3-yl)azetidine-3-carboxamide] — 2.3-fold higher, 6.57 nM
- O=C(Nc1ccc(OC2CCN(C(=O)CC3CCCCC3)CC2)cc1)C1CN(c2cccnc2)C1 [Example 50, N-(4-{[1-(cyclohexylacetyl)piperidin-4-yl]oxy}phenyl)-1-(pyridin-3-yl)azetidine-3-carboxamide] — 3.2-fold higher, 8.95 nM
- Cc1ncccc1N1CC(C(=O)Nc2ccc(C3CCN(C(=O)[C@H]4CCC(=O)N4)CC3)cc2)C1 [Example 167, 1-(2-methylpyridin-3-yl)-N-{4-[1-(5-oxo D-prolyl)piperidin-4-yl]phenyl}azetidine-3-carboxamide] — 2200-fold higher, 6250 nM
- CCC(C)C(=O)N1CCC(c2ccc(NC(=O)[C@H]3CCN(c4cccnn4)C3)cc2)CC1 (stereo partly drawn) [Example 706, (3S)-N-{4-[1-(2-methylbutanoyl)piperidin-4-yl]phenyl}-1-(pyridazin-3-yl)pyrrolidine-3-carboxamide] — 2.7-fold higher, 7.7 nM
- O=C(Nc1ccc(C2CCN(C(=O)c3ccccc3O)CC2)cc1)C1CN(c2cccnn2)C1 [Example 342, N-{4-[1-(2-hydroxybenzoyl)piperidin-4-yl]phenyl}-1-(pyridazin-3-yl)azetidine-3-carboxamide] — within 1.5-fold, 2.3 nM
- C=CCCC(=O)N1CCC(c2ccc(NC(=O)C3CN(c4cccnn4)C3)cc2)CC1 [Example 331, N-{4-[1-(pent-4-enoyl)piperidin-4-yl]phenyl}-1-(pyridazin-3-yl)azetidine-3-carboxamide] — within 1.5-fold, 2.09 nM
- O=C(Nc1ccc(O[C@@H]2CCN(C(=O)c3ccc(F)cc3)C2)cc1)[C@H]1CCN(c2cccnn2)C1 [Example 777, (3S)-N-(4-{[(3R)-1-(4-fluorobenzoyl)pyrrolidin-3-yl]oxy}phenyl)-1-(pyridazin-3-yl)pyrrolidine-3-carboxamide] — 6.8-fold higher, 19.2 nM
- O=C(Nc1ccc(OC2CCN(C(=O)c3ccccn3)CC2)cc1)C1CN(c2cccnn2)C1 [Example 242, 1-(pyridazin-3-yl)-N-(4-{[1-(pyridin-2-ylcarbonyl)piperidin-4-yl]oxy}phenyl)azetidine-3-carboxamide] — 3.2-fold higher, 9.06 nM
- CCC(C)CC(=O)N1CCC(Oc2ccc(NC(=O)C3CN(c4cccnc4)C3)cc2)CC1 (centres unmarked) [Example 38, N-(4-{[1-(3-methylpentanoyl)piperidin-4-yl]oxy}phenyl)-1-(pyridin-3-yl)azetidine-3-carboxamide] — 2.3-fold higher, 6.39 nM
- O=C(Nc1ccc(C2CCN(C(=O)c3ccc(Cl)cc3)CC2)cc1)C1CN(c2ccnnc2)C1 [Example 545, N-{4-[1-(4-chlorobenzoyl)piperidin-4-yl]phenyl}-1-(pyridazin-4-yl)azetidine-3-carboxamide] — 5.4-fold higher, 15.2 nM
- CC(C)C(=O)N1CCC(Oc2ccc(NC(=O)C3CN(c4cccnc4)C3)cc2)CC1 [Example 46, N-(4-{[1-(2-methylpropanoyl)piperidin-4-yl]oxy}phenyl)-1-(pyridin-3-yl)azetidine-3-carboxamide] — within 1.5-fold, 3.01 nM
- O=C(Nc1ccc(O[C@@H]2CCN(C(=O)c3ccc(F)cc3F)C2)cc1)C1CN(c2ccnnc2)C1 [Example 467, N-(4-{[(3R)-1-(2,4-difluorobenzoyl)pyrrolidin-3-yl]oxy}phenyl)-1-(pyridazin-4-yl)azetidine-3-carboxamide] — 5.5-fold higher, 15.6 nM
- Cc1ccc(N2CC(C(=O)Nc3ccc(C4CCN(C(=O)c5ccccc5F)CC4)cc3)C2)nn1 [Example 851, N-{4-[1-(2-fluorobenzoyl)piperidin-4-yl]phenyl}-1-(6-methylpyridazin-3-yl)azetidine-3-carboxamide] — within 1.5-fold, 2.75 nM
- O=C(Nc1ccc(C2CCN(C(=O)Cc3cccc(F)c3)CC2)cc1)[C@H]1CCN(c2cccnn2)C1 [Example 714, (3S)-N-(4-{1-[(3-fluorophenyl)acetyl]piperidin-4-yl}phenyl)-1-(pyridazin-3-yl)pyrrolidine-3-carboxamide] — 6.2-fold higher, 17.6 nM
